By inhibition is commonly meant how much of the control response was suppressed.

Test [1] concerns the target T1, HAC1 catalytic domain (recombinant HAC1) (Arabidopsis thaliana, UniProt Q9C5X9).
T1 construct: HAT catalytic domain aa 1081-1517 (nt 3241-4551 of CDS), C-terminal 6xHis tag, pET28a, E. coli BL21(DE3), partially purified, 52 kDa
Description: colorimetric antibody-based HAT activity assay (EpiGentek P-4003), […] nm. It counts as biochemical.

The target in test [2] is T1, HAC1 catalytic domain (recombinant HAC1). The description is as above. It counts as biochemical. The settings on record: kit HAT substrate as acetyl acceptor, 45 min at 37 °C; partially purified enzyme.

T1 sequence (Q9C5X9 1081-1517): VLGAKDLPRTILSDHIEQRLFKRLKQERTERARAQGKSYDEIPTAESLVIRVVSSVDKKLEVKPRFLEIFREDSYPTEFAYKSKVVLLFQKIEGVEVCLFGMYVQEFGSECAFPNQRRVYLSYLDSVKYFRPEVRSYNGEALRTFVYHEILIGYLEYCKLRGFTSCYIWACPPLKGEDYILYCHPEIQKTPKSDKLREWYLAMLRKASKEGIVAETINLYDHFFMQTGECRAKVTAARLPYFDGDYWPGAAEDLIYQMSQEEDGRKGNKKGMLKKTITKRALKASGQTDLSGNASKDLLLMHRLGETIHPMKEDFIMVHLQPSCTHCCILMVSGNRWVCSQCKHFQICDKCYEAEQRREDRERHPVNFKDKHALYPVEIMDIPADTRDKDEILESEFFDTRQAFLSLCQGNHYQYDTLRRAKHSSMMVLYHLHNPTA

For `O=C1C(Cc2ccc(O)c(Br)c2)CCCC1Cc1ccc(O)c(Br)c1` (centres unmarked) [2c, 2,6-Bis(3-bromo-4-hydroxybenzyl)cyclohexanone], the inhibition at 6 µM in test [1] was 83%.
As to `CC(=O)SCCNC(=O)CCNC(=O)[C@H](O)C(C)(C)COP(=O)(O)OP(=O)(O)OC[C@H]1O[C@@H](n2cnc3c(N)ncnc32)[C@H](O)[C@@H]1OP(=O)(O)O` [acetyl-CoA], the “colorimetric antibody-based HAT activity assay (EpiGentek P-4003), 450 nm” value in test [2] is “strip wells were incubated with acetyl-CoA and partially purified HAC1 catalytic domain”.
